# Values joined by “and” are separate entries in the source; they are usually repeats but may differ in a detail not shown here. Equal entries are not always repeated. Where two headings read alike, the source gives them in different places.
# Tests used:
# [1] = test system: uterine horns from wild-type (WT) C57BL/6J female mice; test: Spontaneous uterine contractility, isolated uterine horns in tissue organ bath; conditions: for Spontaneous contractile force compared with the vehicle control (in words) / Spontaneous uterine contraction frequency compared to vehicle control (in words) / Contractile Frequency/10 min (% of baseline), Drug / Contractile Force (% of baseline), Drug: maximal treatment dose; for Contractile Frequency/10 min (% of baseline), Drug / Contractile Force (% of baseline), Drug: spontaneous contractility; for Contractile Force (% of baseline), Drug: AUC as % of baseline AUC; for IC50: spontaneous, dose-response 10^-9 to 10^-6 mol/L
# Procedure: (§1) FIGS. 2A & 2B are representative contraction tracings of uterine horns from wild-type (WT) C57BL/6J female mice. FIG. 2A: Uterine horns were isolated and suspended in a tissue organ bath at 0.5 g of tension. Once equilibrated, selected progestin treatments were added in successively increasing concentrations from 10^−9 to 10^−6 mol/L in 20-minute intervals to assess effect on spontaneous contractile activity (progesterone treatment, bottom panel). The contralateral horn from each mouse was treated with a matching ethanol vehicle (top panel). All contraction responses were measured and reported as the area under the contraction curve (AUC), normalized to the AUC of the spontaneous contraction pattern that preceded treatment. FIG. 2B: Treatment effect on oxytocin-induced contractility was assessed by exposing horns to selected progestin treatments (10^−6 mol/L), followed by increasing doses of oxytocin (Oxt) (1, 10, 50, and 100 nmol/L) in 10-minute intervals (bottom panel). The contralateral horn from each mouse was treated with a matching ethanol vehicle (top panel). Contraction responses were measured and reported as described above.
# (§2) All progestins were solubilized in ethanol and then diluted in phosphate-buffered saline to the desired molar concentration. […] The concentration of ethanol decreased parallel to the progestin dose in order to minimize the effect of the solvent on uterine contractility.
# (§3) Virgin nonpregnant wild-type C57BL/6J female mice (Jackson Labs, Bar Harbor, Me.) were obtained at 10 to 12 weeks of age and fed a standard diet. Mice were euthanized by an IACUC-approved protocol, and each of the 2 uterine horns were removed. A 1 cm×0.5 cm segment of the uterine horn was suspended using 4-0 silk suture between a stainless steel wire hook connected to a Radnoti force displacement transducer (Radnoti LLC, Monrovia, Calif.) and a glass hook inside an organ bath that served as an anchor. The bath was filled with modified Krebs buffer (118 mmol/L NaCl, […], 1.2 mmol/L MgSO4, 1.2 mmol/L KH2PO4, 2.5 mmol/L CaCl2, 25 mmol/L NaHCO3, and 11 mmol/L glucose, pH 7.4), maintained at 37° C., and constantly bubbled with a premixed gas consisting of 20% O2, 5% CO2, and balance N2. Uterine horns were equilibrated at 0.5 g of tension for approximately 30 minutes until a spontaneous contraction pattern was established.
# A total of 60 mice were utilized to assess the effect of the selected treatments on uterine contractility, 30 in the spontaneous contraction group and 30 in the oxytocin-induced group. Six mice were in each progestin treatment group during both spontaneous and oxytocin-induced contractility arms of the study. To determine the nongenomic (acute) effect of the progestin treatments on spontaneous uterine contractility, a segment of uterine horn from each mouse was exposed to a single progestin (progesterone, 17-OHPC, 2α-OHP, 6β-OHP, or 16αOHP), while a segment of the contralateral horn was exposed to a matching dose of ethanol vehicle. After a spontaneous contraction pattern was achieved, the progestin treatment was added to the tissue organ bath in successively increasing concentrations from 10^−9 to 10^−6 mol/L in 20-minute intervals. At the end of the treatments, the tissue was washed in modified Krebs buffer and then exposed to KCl (60 mmol/L) to elicit a tetanic response and confirm tissue viability.
# Uterine contraction responses were recorded using LabChart Pro (ADInstruments, Colorado Springs, Colo.) software as the force generated with time (g×min). Baseline uterine contractility was calculated as the area under the curve (AUC) for a 10-minute period of spontaneous contractions. The AUC of the uterine contractile response to each treatment (progestin or oxytocin) was determined and expressed as a percentage of the baseline AUC observed during spontaneous contraction. […]
# [2] = test system: uterine horns from wild-type (WT) C57BL/6J female mice; test: Oxytocin-induced uterine contractility after progestin pretreatment, isolated uterine horns in tissue organ bath; conditions: for Oxytocin-induced contractile force compared to vehicle control (in words) / Oxytocin-induced contraction frequency compared to control (in words) / Contractile Force (% of baseline), Drug / Contractile Frequency/10 min (% of baseline), Drug: maximal oxytocin dose (100 nmol/L); for EC50: oxytocin-induced dose-response (1-100 nmol/L oxytocin) after progestin pretreatment 10^-6 mol/L; for Contractile Force (% of baseline), Drug / Contractile Frequency/10 min (% of baseline), Drug: oxytocin-induced, progestin pretreatment 10^-6 mol/L
# Procedure: as §1, §2, §3
# To determine the nongenomic effect of progestin treatments on oxytocin-induced uterine contractility, the uterine horns were pretreated with a single progestin at 10^−6 mol/L for 10 minutes after a spontaneous contractile pattern was established. The contralateral horn from the same mouse was treated with ethanol vehicle at a matching concentration. The uterine horns were subsequently exposed to increasing concentrations of oxytocin (1, 10, 50, and 100 nmol/L) in 10-minute intervals. At the end of the oxytocin treatments, the tissue was washed and then exposed to KCl (60 mmol/L) to elicit a tetanic response and confirm tissue viability.
# Uterine contraction responses were recorded using LabChart Pro (ADInstruments, Colorado Springs, Colo.) software as the force generated with time (g×min). Baseline uterine contractility was calculated as the area under the curve (AUC) for a 10-minute period of spontaneous contractions. The AUC of the uterine contractile response to each treatment (progestin or oxytocin) was determined and expressed as a percentage of the baseline AUC observed during spontaneous contraction. […] To account for repeated measurements for individual muscle strips at increasing treatment doses, a repeated measures 2-way analysis of variance model was used to compare the dose-response curves. Each dose-response curve was fit by nonlinear regression and compared using an extra sum of squares F test. The mean max-fit response was compared between each progestin and vehicle control to determine maximum treatment efficacy. […]
# [3] = test system: primary uterine smooth muscle cells (UtSMC); test: IL-6 production in UtSMC stimulated with LPS; assay type: cell-based; conditions: for IL-6 / IL-6, % of positive control: UtSMC pre-treated, then LPS; for IL-6: LPS positive control 121.7 pg/mL; for IL-6, % of positive control: relative to DMSO+LPS positive control
# Procedure: In this Example, the effect of progesterone metabolites 16αOHP and 6β-OHP on inflammation in primary uterine smooth muscle cells (UtSMC) was analyzed.
# UtSMC were cultured in the presence of DMSO and one of the following: (1) progesterone; (2) […]; (3) 6β-OHP; and (4) 16αOHP. Lipopolysaccharide (LPS) was then added to the culture to stimulate an immune inflammatory reaction. Experiments were performed in triplicate.
# [4] = test system: primary uterine smooth muscle cells (UtSMC); test: IL-6 production in UtSMC stimulated with TNF-α; assay type: cell-based
# Text: FIGS. 5A & 5B are graphs depicting the effect of progesterone metabolites 16αOHP and 6β-OHP on inflammation in primary uterine smooth muscle cells (UtSMC).
# THP-1 monocyte cells = test: Flow cytometry of monocyte-derived macrophage population (PMA differentiation); assay type: cell-based; conditions: THP-1 pre-treated 24 hours, then PMA
# Procedure: FIGS. 6A-6C depict flow cytometry of a monocyte-derived macrophage population pre-treated with progesterone metabolites. THP-1 monocyte cells were pre-treated with progesterone metabolites 16αOHP and 6β-OHP for 24 hours, then stimulated to differentiate to macrophages by exposure to PMA.
# THP-1 monocyte cells were pre-treated with progesterone metabolites 16αOHP and 6β-OHP for 24 hours, then stimulated to differentiate to macrophages by exposure to phorbol 12-myristate 13-acetate (PMA).
# THP-1 monocytes = test: IL-6 production in THP-1 monocytes stimulated with LPS; assay type: cell-based; conditions: THP-1 monocytes pretreated, then LPS; versus positive control
# Procedure: FIG. 9 is a graph depicting the effect of progesterone and progesterone metabolites (16αOHP and 6β-OHP) on inflammation in THP-1 monocytes stimulated with LPS.
# In this Example, the effect of progesterone and progesterone metabolites (16αOHP and 6β-OHP) on inflammation in THP-1 monocytes stimulated with LPS was analyzed.
# [5] = test system: monocyte-derived macrophage populations; test: Macrophage cell surface marker expression of monocyte-derived macrophages; assay type: cell-based; conditions: relative to DMSO treated control
# Text: FIG. 7 is a graph depicting characterization of monocyte-derived macrophage populations after pre-treatment with progesterone and progesterone metabolites. Expression of macrophage cell surface markers is illustrated relative to DMSO treated control.
# In this Example, monocyte-derived macrophage populations after pre-treatment with progesterone and progesterone metabolites were characterized.
# Expression of macrophage cell surface markers is illustrated relative to DMSO treated control (see FIG. 7).
# NF-κB pathway = NF-κB pathway activation in THP-1 monocytes stimulated with LPS (imaging flow cytometry); assay type: cell-based; conditions: THP-1 monocytes pre-treated, then LPS
# Procedure: FIGS. 8A-8B depicts the summary of NF-κB pathway activation in THP-1 monocytes stimulated with LPS after pre-treatment with progesterone and progesterone metabolites. […] In this Example, the effect of progesterone metabolites on the LPS-induced inflammatory response in monocytes was analyzed. Particularly, NF-κB pathway activation in THP-1 monocytes stimulated with LPS after pre-treatment with progesterone and progesterone metabolites was analyzed.
# [6] = read-out: Contractile Force IC50
# [7] = read-out: Contractile Frequency IC50
# [8] = read-out: Contractile Force EC50
# [9] = read-out: Contractile Frequency EC50
# [10] = Mus musculus, read-out: Contractile Force IC50
# [11] = Mus musculus, read-out: Contractile Frequency IC50
# [12] = Mus musculus, read-out: Contractile Force EC50
# [13] = Mus musculus, read-out: Contractile Frequency EC50
Structure (SMILES),"IC50 [1, 6] [nM]","IC50 [1, 7] [nM]","EC50 [2, 8] [nM]","EC50 [2, 9] [nM]","IC50 [1, 10] [nM]","IC50 [1, 11] [nM]","EC50 [2, 12] [nM]","EC50 [2, 13] [nM]",Spontaneous contractile force compared with the vehicle control (in words) [1],Spontaneous uterine contraction frequency compared to vehicle control (in words) [1],"Contractile Frequency/10 min (% of baseline), Drug [1]","Contractile Force (% of baseline), Drug [1]",Oxytocin-induced contractile force compared to vehicle control (in words) [2],Oxytocin-induced contraction frequency compared to control (in words) [2],"Contractile Force (% of baseline), Drug [2]","Contractile Frequency/10 min (% of baseline), Drug [2]",IL-6 [3] [pg/mL],"IL-6, % of positive control [3] [%]",also measured
"CC(=O)[C@H]1CC[C@H]2[C@@H]3CCC4=CC(=O)[C@H](O)C[C@]4(C)[C@H]3CC[C@]12C [2α-OHP, 4-pregnen-2α-ol-3,20-dione]",0.32,0.55,68.2,646,,,,,No significant difference,not significantly decreased,53.7% of baseline,37.9% of baseline,no differences,not,329.5% of baseline,168.9% of baseline,,,
"CC(=O)[C@H]1[C@H](O)C[C@H]2[C@@H]3CCC4=CC(=O)CC[C@]4(C)[C@H]3CC[C@@]21C [16α-OHP, 4-pregnen-16α-ol-3,20-dione]",0.77,0.74,142,8.46,,,,,No significant difference,not significantly decreased,57% of baseline,37.2% of baseline,no differences,decreased significantly,301.6% of baseline,216.9% of baseline,98.7,83,"Effect on oxytocin-induced uterine contractility (in words) [2]: decreased; Contractile Frequency/10 min (% of baseline), Drug ([2]; listed as 16αOHP): 217 % of baseline; IL-6 production (in words) ([3]; UtSMC stimulated with LPS): reduced IL-6 production; IL-6 production (in words) [4]: decreased IL-6 production; Macrophage population/phenotype compared to DMSO treated control (in words) (THP-1 monocyte cells): decrease in the macrophage population/phenotype; Inflammatory response (IL-6 production) (in words) (THP-1 monocytes): significantly decreased IL-6 production"
"C[C@]12CC[C@@H]3c4ccc(O)cc4CC[C@H]3[C@@H]1CC[C@@H]2O [E2, reference compound]",,,,,,,,,,,,,,,,,126,103,

# Second part, led by results:
"IC50 [1, 6] [nM]","IC50 [1, 7] [nM]","EC50 [2, 8] [nM]","EC50 [2, 9] [nM]","IC50 [1, 10] [nM]","IC50 [1, 11] [nM]","EC50 [2, 12] [nM]","EC50 [2, 13] [nM]",Structure (SMILES),Spontaneous contractile force compared with the vehicle control (in words) [1],Spontaneous uterine contraction frequency compared to vehicle control (in words) [1],"Contractile Frequency/10 min (% of baseline), Drug [1]","Contractile Force (% of baseline), Drug [1]",Oxytocin-induced contractile force compared to vehicle control (in words) [2],Oxytocin-induced contraction frequency compared to control (in words) [2],"Contractile Force (% of baseline), Drug [2]","Contractile Frequency/10 min (% of baseline), Drug [2]",IL-6 [3] [pg/mL],"IL-6, % of positive control [3] [%]",also measured
,,,,0.78,0.31,8.43,3.26,"CCCCCC(=O)O[C@]1(C(C)=O)CC[C@H]2[C@@H]3CCC4=CC(=O)CC[C@]4(C)[C@H]3CC[C@@]21C [17-OHPC, 4-pregnen-17-ol-3,20-dione caproate, reference compound]",No significant difference,not significantly decreased,57.9% of baseline,50.4% of baseline,,decreased significantly,218.4 % of baseline,130 % of baseline and 130.2% of baseline,,,
,,,,0.31,6.58,9.76,11.3,CC(=O)[C@H]1CC[C@H]2[C@@H]3CCC4=CC(=O)CC[C@]4(C)[C@H]3CC[C@]12C [Progesterone],,not significantly decreased,48% of baseline,43.9% of baseline,,decreased significantly,266.8% of baseline,141% of baseline,100.3,83,"Contractile Force (% of baseline), Drug ([1]; listed as progesterone): 43.9 % of baseline; Contractile Force (% of baseline), Drug ([2]; listed as progesterone): 266.8 % of baseline; Contractile Frequency/10 min (% of baseline), Drug ([2]; listed as progesterone): 141 % of baseline; Expression of cell surface markers involved in immune response (CD14, TLR4, and HLA-DR) (in words) [5]: decreased expression; Median similarity score (NF-κB migration into the nucleus) (in words) (NF-κB pathway): did not affect the median similarity score"

# Reference: US10231979B2, “Modulation of inflammation using progesterone metabolites” (Indiana University Research and Technology Corporation, priority 2015, dated 2019)
